How the values were obtained:
Assay type in all cases: cell-based
[1] = system: AKT1 (AKT serine/threonine kinase 1); experiment: Gene expression experiment (real-time PCR) in SH-SY5Y cells: AKT1; settings: 12.56 μM, amyloid β protein-treated cells, 24 h; compared to “Aβ”
Experimental: (§1) SH-SY5Y cells were seeded in 100 mm-cell dishes (BD Biocoat) at concentrations of 3.7×10^5 cells/mL (10 mL/dish) and cultured for 24 h at 37° C. and 5% CO2. Culture medium used was F12/DMEM (Gibco) supplemented with 1% non-essential amino acids (Gibco), 15% FBS (Bio West), and 1% penicillin/streptomycin (Lonza). After 24 h, the culture medium was completely removed with an aspirator, 10 mL of culture medium Opti-MEM(Gibco) was added to each dish, and the cells were cultured for 24 h at 37° C. and 5% CO2. RNA was extracted from the culture cells and analyzed for the expression of genes described below by real-time PCR (designated as “Control” in FIGS. 2 to 8).
(§2) RNA extraction was performed using ISOGEN Reagent (Nippon Gene Co., Ltd.) in accordance with the protocol recommended by Nippo n Gene Co., Ltd. (see URL: https://www.nippongene.com/siyaku/product/extraction/tds/tds_isogen-rna-dna-protein.pdf). Real-time PCR was performed according to the protocol recommended by Thermo Fisher Scientific using a reagent kit for TaqMan Real-Time PCR (Thermo Fisher Scientific) (see URL: https://assets.thermofisher.com/TFS-Assets/LSG/manuals/4304449_TaqManPCRMM_UG.pdf).
(§3) 24 h after seeding 100 mm-cell dishes (BD Biocoat) with SH-SY5Y cells, the culture medium was completely removed with an aspirator, amyloid β protein (Beta-Amyloid 1-42, AnaSpec) was mixed with Opti-MEM (Gibco) so that the final concentration was 5 μM, 10 mL of the mixture was added to each dish, the cells were cultured for 24 h at 37° C. and 5% CO2, and RNA was extracted. Except for performing the procedure described above, gene expression was analyzed as described above (designated as “Aβ” in FIGS. 2 to 8).
(§4) 24 h after seeding 100 mm-cell dishes (BD Biocoat) with SH-SY5Y cells, the culture medium was completely removed with an aspirator, Sample 1 was mixed with culture medium Opti-MEM(Gibco) so that the final concentration was 12.56 μM, 9,990 μL of the mixture was added to each dish and allowed to stand for 10 min, amyloid β protein (Beta-Amyloid 1-42, AnaSpec) was mixed with Opti-MEM (Gibco) so that the final concentration was […], 10 μL of the mixture was added to each well, the cells were cultured for 24 h at 37° C. and 5% CO2, and RNA was extracted. Except for performing the procedure described above, Gene expression was analyzed as described above (designated as “Aβ+M3,5G” in FIGS. 2 to 8).
(§5) Except that Sample 2 was used instead of Sample 1, gene expression was analyzed as described above (designated as “Aβ+M” in FIGS. 2 to 8).
(§6) Except that Sample 3 was used instead of Sample 1, gene expression was analyzed as described above (designated as “Aβ+M3G” in FIGS. 2 to 8).
(§7) 24 h after seeding 100 mm-cell dishes (BD Biocoat) with SH-SY5Y cells, the culture medium was completely removed with an aspirator, 10 mL of culture medium Opti-MEM(Gibco) mixed with Sample 1 was added to each dish, the cells were cultured for 24 h at 37° C. and 5% CO2, and RNA was extracted. Except for performing the procedure described above, gene expression was analyzed as described above (designated as “M3,5G” in FIGS. 2 to 8).

[2] = system: PI3KCA (phosphatidylinositol-4,5-bisphosphate 3-kinase catalyst subunit α); experiment: Gene expression experiment (real-time PCR) in SH-SY5Y cells: PI3KCA; settings: 12.56 μM, amyloid β protein-treated cells, 24 h; compared to “Aβ”
Experimental: as §1, §2, §3, §4, §5, §6, §7

[3] = system: PARP1 (poly(ADP-ribose) polymerase 1); experiment: Gene expression experiment (real-time PCR) in SH-SY5Y cells: PARP1; settings: 12.56 μM, amyloid β protein-treated cells, 24 h; compared to “Aβ”
Experimental: as §1, §2, §3, §4, §5
(§8) Except that Sample 3 was used instead of Sample 1, gene expression was analyzed as described above (designated as “Aβ+M3G” in FIGS. 2 to 8). […]

[4] = system: MAP2K4 (mitogen-activated protein kinase 4); experiment: Gene expression experiment (real-time PCR) in SH-SY5Y cells: MAP2K4; settings: 12.56 μM, amyloid β protein-treated cells, 24 h; compared to “Aβ”
Experimental: as §1, §2, §3, §4, §5, §6, §7

[5] = system: MAPK14 (mitogen-activated protein kinase 14); experiment: Gene expression experiment (real-time PCR) in SH-SY5Y cells: MAPK14; settings: 12.56 μM, amyloid β protein-treated cells, 24 h; compared to “Aβ”
Experimental: as §1, §2, §3, §4, §5, §8

[6] = system: CASP3 (caspase-3); experiment: Gene expression experiment (real-time PCR) in SH-SY5Y cells: CASP3; settings: 12.56 μM, amyloid β protein-treated cells, 24 h; compared to “Aβ”
Experimental: as §1, §2, §3, §4, §5, §6, §7

[7] = system: SH-SY5Y cells; experiment: Cell survival experiment (MTT), cell death induced by amyloid β protein; settings: compound 12.56 μM, 72 h, compared to “Aβ”
Experimental: Each well of a 96-well plate (BD Biocoat) was seeded with SH-SY5Y cells (model of neuronal cells, ATCC) at a concentration of 2×10^5 cells/mL (100 μL/well) and the cells were cultured at 37° C. and 5% CO2 for 24 h. Culture medium used was F12/DMEM (Gibco) supplemented with 1% non-essential amino acids (Gibco), 15% FBS (Bio West), and 1% penicillin/streptomycin (Lonza).
After 24 h, the culture medium was completely removed with an aspirator, 100 μL of culture medium Opti-MEM (Gibco) was added to each well, and the cells were cultured at 37° C. and 5% CO2 for 24 h. […]
Absorbance at 570 nm was measured on a microplate reader (Sumitomo Dainippon Pharma) to measure the MTT formazan production to calculate % relative cell survival (designated as “Control” in FIG. 1).
24 h after seeding a 96-well plate (BD Biocoat) with SH-SY5Y cells, the culture medium was completely removed with an aspirator, amyloid β protein (Beta-Amyloid 1-42, AnaSpec) was mixed with Opti-MEM (Gibco) so that the final concentration was 15 μM, 100 μL of the mixture was added to each well, and the cells were cultured at 37° C. and 5% CO2 for 72 h to induce cell death. Except for performing the procedure described above, the MTT formazan production was measured as described above to calculate % relative cell survival (designated as “Aβ” in FIG. 1). […]

[8] = system: MAPK8 (mitogen-activated protein kinase 8); experiment: Gene expression experiment (real-time PCR) in SH-SY5Y cells: MAPK8; settings: 12.56 μM, amyloid β protein-treated cells, 24 h; compared to “Aβ”
Experimental: as §1, §2, §3, §4, §5, §8

SMILES	expression of AKT1 [1]	expression of PI3KCA [2]	expression of PARP1 [3]	expression of MAP2K4 [4]	expression of MAPK14 [5]	expression of CASP3 [6]	% relative cell survival [7]	expression of MAPK8 [8]
COc1cc(-c2[o+]c3cc(O)cc(O)c3cc2O[C@@H]2O[C@H](CO)[C@@H](O)[C@H](O)[C@H]2O)cc(OC)c1O.[Cl-] [malvidin-3-glucoside, Malvidin-3-glucoside chloride, reference compound]	increase	increase	increase	increase	increase	–	–	–
COc1cc(-c2[o+]c3cc(O)cc(O)c3cc2O)cc(OC)c1O [malvidin, Malvidin chloride, reference compound]	increase	increase	increase	increase	increase	decrease	Inhibition of cell death was also confirmed	increase
